Tested on: LNCaP tumor-transplanted mouse
Assay: Internal radioactivity distribution using LNCaP tumor-transplanted mouse
Format: in vivo
Protocol: (§1) The animal test was performed in compliance with the guidelines of Kyoto University Animal Experiment Committee. Male CB17/IcrJcl-Prkdc^scid mice were purchased from CLEA Japan, Inc. The animals were kept under 12 h/12 h, day/night cycle conditions and fed ad libitum with food and water. LNCaP cells (1.0×10^7 cells/mouse) or PC-3 cells (1.0×10^7 cells/mouse) were suspended in a mixture of PBS and Matrigel manufactured by Corning Life Sciences (1:1, 150 μL) and the suspension was subcutaneously transplanted to the right shoulder of mice under isoflurane anesthesia. Thereafter, the mice were kept for 40 to 60 days.
LNCaP or PC-3 tumor-implanted mice were administered saline solutions (185 kBq, 100 μL) of [^111In]In-PSMA-DA1 or [^111In]In-PSMA-DB from the tail vein (n=3 each). Mice were euthanized 1, 4, 24, 48, 96, and 192 hours after administration. Thereafter, blood and each organ were recovered, and the mass and radioactivity of the organs were measured.
The percentage (% ID) of the radioactivity amount to the administered radioactivity amount (injected dose) is shown as the value (% ID/g) divided by the blood mass or the organ mass (g).
LNCaP tumor-implanted mice prepared by the same method as in Example 1-1 were administered a saline solution (241 kBq/100 μL) of [^111In]In-PtDA from the tail vein (n=3). Mice were euthanized 1, 24, and 48 hours after administration. Thereafter, blood and each organ were recovered, and the mass and radioactivity of the organs were measured.
LNCaP tumor-implanted mice prepared by the same method as in Example 1-1 were administered a saline solution (259 kBq/100 μL each) of each of the radiolabeled compounds in Examples 3-1 to 3-3 or Comparative Examples 2-1 to 2-2 from the tail vein (n=2 to 3). Mice were euthanized 1, 4, 24, 48, 96, and 192 hours after administration. Thereafter, blood and each organ were recovered, and the mass and radioactivity of the organs were measured.
as §1, with “LNCaP cells (4.3×10^6 cells/mouse) or” for “LNCaP cells (1.0×10^7 cells/mouse) or”, “PC-3 cells (3.3×10^6 cells/mouse) were” for “PC-3 cells (1.0×10^7 cells/mouse) were”, “shoulder of CB17/IcrJcl-Prkdc^scid mice under” for “shoulder of mice under”
Mice were euthanized 1, 4, 24, 48, 96, and 192 hours after administration. Thereafter, blood and each organ were recovered, and the mass and radioactivity of the organs were measured.
The results are shown in Table 12 (Mean value±standard deviation, n=3).

SMILES: O=C([O-])CN(Cc1cccc(C(=O)[O-])n1)C[C@H](Cc1ccc(NC(=O)[C@H](CCCCNC(=O)CCC(=O)NCCCC[C@H](NC(=O)N[C@@H](CCC(=O)O)C(=O)O)C(=O)O)NC(=O)CCCc2ccc(I)cc2)cc1)N(CC(=O)[O-])Cc1cccc(C(=O)[O-])n1.[111In+3] [[^111In]In-Octapa-2]
- Blood (1 h after administration): 14.4 ± 1.81 % ID/g
- Brain (1 h after administration): 0.20 ± 0.03 % ID/g
- Heart (1 h after administration): 3.98 ± 0.51 % ID/g
- Intestine (1 h after administration): 1.55 ± 0.21 % ID/g
- Kidney (1 h after administration): 121 ± 14.9 % ID/g
- LNCaP Tumor (1 h after administration): 12.5 ± 0.26 % ID/g
- Liver (1 h after administration): 2.75 ± 0.54 % ID/g
- Lung (1 h after administration): 10.1 ± 1.34 % ID/g
- Muscle (1 h after administration): 1.44 ± 0.24 % ID/g
- Pancreas (1 h after administration): 1.73 ± 0.18 % ID/g
- Spleen (1 h after administration): 18.5 ± 4.39 % ID/g
- Stomach (% ID) (1 h after administration): 0.51 ± 0.22 % ID
- Blood (4 h after administration): 6.73 ± 1.63 % ID/g
- Brain (4 h after administration): 0.14 ± 0.02 % ID/g
- Heart (4 h after administration): 1.89 ± 0.49 % ID/g
- Intestine (4 h after administration): 1.65 ± 0.37 % ID/g
- Kidney (4 h after administration): 177 ± 35.7 % ID/g
- LNCaP Tumor (4 h after administration): 13.7 ± 3.24 % ID/g
- Liver (4 h after administration): 1.67 ± 0.47 % ID/g
- Lung (4 h after administration): 5.02 ± 0.89 % ID/g
- Muscle (4 h after administration): 0.63 ± 0.19 % ID/g
- Pancreas (4 h after administration): 1.59 ± 0.94 % ID/g
- Spleen (4 h after administration): 13.2 ± 2.66 % ID/g
- Stomach (% ID) (4 h after administration): 0.23 ± 0.02 % ID
- Blood (24 h after administration): 0.84 ± 0.27 % ID/g
- Brain (24 h after administration): 0.03 ± 0.01 % ID/g
- Heart (24 h after administration): 0.33 ± 0.05 % ID/g
- Intestine (24 h after administration): 0.82 ± 0.68 % ID/g
- Kidney (24 h after administration): 55.3 ± 19.3 % ID/g
- LNCaP Tumor (24 h after administration): 8.64 ± 2.27 % ID/g
- Liver (24 h after administration): 0.33 ± 0.02 % ID/g
- Lung (24 h after administration): 0.74 ± 0.12 % ID/g
- Muscle (24 h after administration): 0.07 ± 0.02 % ID/g
- Pancreas (24 h after administration): 0.19 ± 0.05 % ID/g
- Spleen (24 h after administration): 1.97 ± 0.90 % ID/g
- Stomach (% ID) (24 h after administration): 0.21 ± 0.15 % ID
- Blood (48 h after administration): 0.26 ± 0.23 % ID/g
- Brain (48 h after administration): 0.02 ± 0.01 % ID/g
- Heart (48 h after administration): 0.18 ± 0.12 % ID/g
- Intestine (48 h after administration): 0.68 ± 0.32 % ID/g
- Kidney (48 h after administration): 22.4 ± 14.5 % ID/g
- LNCaP Tumor (48 h after administration): 8.10 ± 2.67 % ID/g
- Liver (48 h after administration): 0.32 ± 0.10 % ID/g
- Lung (48 h after administration): 0.45 ± 0.18 % ID/g
- Muscle (48 h after administration): 0.04 ± 0.05 % ID/g
- Pancreas (48 h after administration): 0.13 ± 0.06 % ID/g
- Spleen (48 h after administration): 1.13 ± 0.70 % ID/g
- Stomach (% ID) (48 h after administration): 0.16 ± 0.14 % ID
- Blood (96 h after administration): 0.01 ± 0.01 % ID/g
- Brain (96 h after administration): 0.01 ± 0.00 % ID/g
- Heart (96 h after administration): 0.07 ± 0.02 % ID/g
- Intestine (96 h after administration): 0.45 ± 0.29 % ID/g
- Kidney (96 h after administration): 3.27 ± 0.26 % ID/g
- LNCaP Tumor (96 h after administration): 4.48 ± 0.78 % ID/g
- Liver (96 h after administration): 0.22 ± 0.01 % ID/g
- Lung (96 h after administration): 0.14 ± 0.08 % ID/g
- Muscle (96 h after administration): 0.05 ± 0.02 % ID/g
- Pancreas (96 h after administration): 0.06 ± 0.02 % ID/g
- Spleen (96 h after administration): 0.61 ± 0.04 % ID/g
- Stomach (% ID) (96 h after administration): 0.04 ± 0.02 % ID
- Blood (192 h after administration): 0.01 ± 0.01 % ID/g
- Brain (192 h after administration): 0.01 ± 0.01 % ID/g
- Heart (192 h after administration): 0.06 ± 0.02 % ID/g
- Intestine (192 h after administration): 0.27 ± 0.18 % ID/g
- Kidney (192 h after administration): 1.76 ± 0.70 % ID/g
- LNCaP Tumor (192 h after administration): 1.76 ± 0.45 % ID/g
- Liver (192 h after administration): 0.20 ± 0.05 % ID/g
- Lung (192 h after administration): 0.07 ± 0.02 % ID/g
- Muscle (192 h after administration): 0.01 ± 0.01 % ID/g
- Pancreas (192 h after administration): 0.08 ± 0.02 % ID/g
- Spleen (192 h after administration): 0.44 ± 0.12 % ID/g
- Stomach (% ID) (192 h after administration): 0.01 ± 0.01 % ID

From US20240174622A1, “COMPOUND AND RADIOACTIVE LABELING COMPOUND” (NIHON MEDI-PHYSICS CO., LTD., priority 2021, published 2024)
